Series [1] concerns FR+ cell lines (MDA-MB-231, KB, HOS-FRα, THP1-FRβ, OV90). Nature of the series: Co-culture at 10 nM EC17, varying E/T ratios: specific lysis and Th1 cytokines. The series is classed as cell-based, human. The settings on record: 10 nM EC17, ≥1:1 E/T ratios, 48 hours. The protocol: (§1) After 24 hours of co-culture, supernatants were harvested to determine tumor cell killing. To study the kinetics of T cell activation and FR correlation in vitro (FIGS. 60A-L), co-cultures were carried out in FR+/− cell lines at varying E/T ratios (1:27, 1:9, 1:3, 1:1, 3:1) in the continuous presence of 10 nM EC17. The kinetics of tumor cell killing were quantified after 16 and 48 hours of co-culture. Meanwhile, a portion of the supernatants was taken after 44 hours of co-culture for measurement of IFNγ, IL-2 and TNFα. Using Promega's CytoTox 96® LDH assay kit, target cell killing was quantified and expressed as specific lysis (%) which was normalized to basal levels in the absence of EC17 at defined E/T ratios. The LEGENDplex™ human Th1 cytokine panel (BioLegend, San Diego, Calif.) was used to determine CAR-T cell derived cytokines.
Specific lysis (%) was quantified after 16 and 48 hours of co-culture, and Th1 cytokines (IFNγ, IL-2, TNFα) in culture media were measured after 44 hours of co-culture. […] It generally took a longer time (48 hours) and a higher E/T ratio (≥1:1) to see significant activity in the lowest FR-expressing OV90 cells (FIGS. 60A-G). The high FR-expressing KB cells responded […] to cause significant cell death (FIG. 60F). […]

Another series relates to FR-negative HOS-143b. The series can be described thus: Co-culture at 10 nM EC17, varying E/T ratios: specific lysis. The series is classed as cell-based, human. As to conditions: 10 nM EC17, 48 hours. The protocol: as §1
Specific lysis (%) was quantified after 16 and 48 hours of co-culture, and Th1 cytokines (IFNγ, IL-2, TNFα) in culture media were measured after 44 hours of co-culture. […] It generally took a longer time (48 hours) and a higher E/T ratio (≥1:1) to see significant activity in the lowest FR-expressing OV90 cells (FIGS. 60A-G). The high FR-expressing KB cells responded […] to cause significant cell death (FIG. 60F).

In the next series the test system is MDA-MB-231 tumors. The series can be described thus: Dietary folate effect on antitumor activity and CRS, MDA-MB-231 tumors in NSG mice. The series is classed as in vivo. The protocol:
To study the effect of high dietary folate (FIGS. 63A-K), two sets of NSG mice were placed on either a FA-replete diet (4 mg/kg, Envigo, Indianapolis, Ind.) or a FA-deficient diet (TestDiet, St. Louis, Mo.) upon arrival. On day 0, both sets of the mice received ˜10 million of the same “clinical facsimile” CAR-T cells followed by no EC17 or EC17 SIW at 500 nmol/kg starting on day 3. On the first day of EC17 administration, MDA-MB-231 tumors size averaged around ˜549±184 mm^3 (280-918 mm^3) in FA-replete mice, and ˜559±165 mm^3 (356-961 mm^3) in FA-deficient mice.
Previously, it was shown that administration of FA or a FA ligand helped reduce the severity of CRS in MDA-MB-231 tumor-bearing mice. To test the long-term effect of dietary folate, mice were maintained on defined diets for ˜73 days and used when their tumors reached ˜549±184 mm^3 (280-918 mm^3) in FA-replete mice, and ˜559±165 mm^3 (356-961 mm^3) in FA-deficient mice (FIGS. 63A-K).
Since we started MDA-MB-231 tumors at larger sizes than previous studies, tumor regression due to alloreactivity at this 10-million “clinical facsimile” CAR-T cell dose was not apparent (FIGS. 63A and 63C).
Using anti-human EGFR (clone Hu1) to identify MDA-MB-231 cancer cells within mouse tumor masses after an enzymatic digestion, we analyzed FRα protein expression (clone LK26) in three tumors recovered from mice on FA-replete diet that experienced a relapse despite continuing EC17 treatment. By flow cytometric detection, EGFR+ cancer cells isolated from the smallest tumor (21 mg) expressed FRα, while EGFR+ cancer cells isolated from the two larger tumors (90 mg and 363 mg) had completely lost their FRα expression (FIGS. 63I-K). Using the quantitative radioligand binding assay with ^3H-FA, the loss of functional FR levels on tissue homogenates obtained from these tumors was confirmed (˜2.1 pmol/mg binding potential versus ˜103 pmol/mg in tumors from untreated animals). Therefore, FA-deficiency may lead to enhanced activity and CRS toxicity; while non-physiological FA intake prevents CRS and continuous consumption may lead to reduced activity.

As for `NC1=NC2N=CC(CNc3ccc(C(=O)N[C@@H](CCC(=O)NCCNC(=S)Nc4ccc(-c5c6ccc(=O)cc-6oc6cc(O)ccc56)c(C(=O)O)c4)C(=O)O)cc3)=NC2C(=O)N1` (stereo partly drawn) [EC17, FA-(γ)-ethylenediamine-FITC], the values for the specific lysis response result (in series [1]; with FR-negative HOS-143b) were “all FR+ cancer cells responded after 48 hours of co-culture” and “essentially unharmed”, respectively. Further, the “CD3ε+EGFRt+ CAR-T cells in blood” value is 1.6-20.4×10^4 per 100 μL blood with MDA-MB-231 tumors (FA-deficient diet, day 52) and 0.027-4.3×10^3 per 100 μL blood in the series with MDA-MB-231 tumors (FA-replete diet, day 59). Moreover, in the series with MDA-MB-231 tumors (FA-deficient diet, subsequent EC17 doses), the CRS grade is on record as 2-3 grade. In addition, the CRS entry in the series with MDA-MB-231 tumors (FA-replete diet, ~10 million CAR-T cells, EC17 500 nmol/kg weekly) was “did not show symptoms of CRS”.

These data come from US11779602B2, “Methods of use for CAR T cells” (ENDOCYTE, INC., priority 2018, dated 2023).
